Assay [1] deals with human iNKT cells. Description: In vitro expansion of human iNKT cells from PBMC (FACS with 6B11 and anti-CD3). The assay is classed as cell-based. The settings on record: 100 nM glycolipid, IL-2 and IL-7, day 7. As to the method: Figure S3. Responses of human iNKT cells to Th2 cell-type cytokine biasing […]
(A) For in vitro expansion of iNKT cells, 2 million human PBMC per well in 96 well plates were stimulated with 100 nM of glycolipids in the presence of IL-2 (60 IU/ml) and IL-7 (5 ng/ml). At day 7, cultures were harvested and analyzed by FACS using 6B11 (specific for the TCRα chain of iNKT cells) and anti-CD3 mAbs. Significant expansion of human […]
all glycolipids with the exception of OCH. Similar results were obtained in three independent experiments from 6 different donors.
(B) Cytokine production by a CD4+ human iNKT clone (HDD11) stimulated with human monocyte-derived dendritic cells pulsed with αGalCer analogues. For in vitro activation of human iNKT cells, 5 x 10^4 cloned iNKT cells per well were stimulated with 2.5 x104 […]

The target of assay [2] is T1, hCD1d (Homo sapiens, UniProt P15813).
T1 construct: made in house
T1 sequence (P15813 20-301 limits assumed): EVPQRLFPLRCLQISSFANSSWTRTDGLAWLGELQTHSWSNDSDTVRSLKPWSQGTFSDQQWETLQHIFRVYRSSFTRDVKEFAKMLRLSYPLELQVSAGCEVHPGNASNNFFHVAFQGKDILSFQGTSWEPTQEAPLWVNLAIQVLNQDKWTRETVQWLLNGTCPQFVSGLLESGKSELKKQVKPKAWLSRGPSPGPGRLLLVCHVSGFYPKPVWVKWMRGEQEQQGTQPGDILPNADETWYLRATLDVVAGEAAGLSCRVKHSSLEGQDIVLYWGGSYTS
T1 sequence (P61769 21-119 partner): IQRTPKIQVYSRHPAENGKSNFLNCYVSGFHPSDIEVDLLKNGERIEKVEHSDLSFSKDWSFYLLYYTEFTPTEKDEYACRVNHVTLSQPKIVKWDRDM
Description: Loading of hCD1d tetramers with or without 0.05% Triton X-100, staining of hybridoma DN3A4.1-2. The assay is classed as binding. From the text: The efficient loading of CD1 molecules with lipids such as αGalCer-C26:0 is known to involve cofactors that enhance the transfer of lipids from micelles or membranes into the antigen-binding groove of the CD1 protein. The best known of these cofactors are resident intracellular lipid binding and transfer proteins including those belonging to the saposin family, GM2 activator proteins, and Niemann-Pick type C1 and C2 proteins ([Zhou et al., 2004; Sagiv et al., 2006; Yuan et al., 2007; Schrantz et al., 2007]). Most of these are known to have detergent-like activities that facilitate solubilization of lipids and their exchange between hydrophobic binding sites. […]
Figure 5 Lack of Detergent-like Cofactor Dependence of Th2 Cell-Type Cytokine-Biasing αGalCer Analogs (A) Glycolipids were incubated for 24 hr at 37°C with murine CD1d proteins in the absence (top row) or presence (bottom row) of 0.05% Triton X-100. […] After washing, DN32.D3 iNKT hybridoma cells were added and supernatant concentrations of IL-2 were determined after an additional 14 hr of incubation. […]
Recombinant CD1d proteins were produced and assembled into tetramers for staining as previously described ([Forestier et al., 2007]). […] All samples were analyzed with the FACSCalibur flow cytometer (BD Biosciences).

1 compound from PMC2719696, “Kinetics and Cellular Site of Glycolipid Loading Control the Outcome of Natural Killer T Cell Activation” (Immunity, 2009) can be followed below.

Regarding `CCCCCCCCCCCCCCCCCCCCCCCC(=O)NC(COC1OC(CO)C(O)C(O)C1O)C(O)C(O)CCCCC` (centres unmarked) [OCH], the “expansion of human iNKT cells (percentage of total viable lymphocytes)” value in assay [1] is “exception”. Besides, the “formation of hCD1d tetramers with iNKT cell-binding avidity” value in assay [2] is on record as “failed to form hCD1d tetramers with iNKT cell-binding avidity under any conditions”.
